Structures are written as SMILES.

The source of these data is US20180354920A1, “SUBSTITUTED OXADIAZOLES FOR COMBATING PHYTOPATHOGENIC FUNGI” (BASF SE, priority 2015, published 2018).

The melting point is the temperature of the solid-liquid transition.

Regarding `CCC(=O)Nc1ccc(-c2noc(C(F)(F)F)n2)cn1` [Ex-1, N-[5-[5-(trifluoromethyl)-1,2,4-oxadiazol-3-yl]-2-pyridyl]propanamide], the melting point stood at 130 °C.
